SMILES strings stand for the structures. Like-named read-outs stand apart in the source and are kept apart here.

The subject of test [1] is PAXF1657 control empty vector cell line. As to the kind of experiment: 7-day proliferation assay, PAXF1657 control empty vector cell line (Example 9). It is filed as cell-based. The conditions noted are these: 168 h; Cell Line: PAXF1657 empty vector (EV) cell line; 7-day; read-out: C: 7-day proliferation assay: IC50 GeoMean. The method, boiled down:
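Viability by CellTiter-Glo after 7 days at 37° C., with compound-containing media replaced on day 3. Cells (500/well, RPMI1640 + 10% FBS) were PAXF1657 pairs: GRK2 overexpression vs empty vector, or CRISPR GRK2 knockout vs non-targeting clones; doses 30 μM-0.0002 μM final, 10 points, 0.3% DMSO.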

The target in test [2] is T1, GRK2 (Homo sapiens, UniProt P25098).
T1 construct: purchased SignalChem A14-10G
T1 sequence (P25098 1-689): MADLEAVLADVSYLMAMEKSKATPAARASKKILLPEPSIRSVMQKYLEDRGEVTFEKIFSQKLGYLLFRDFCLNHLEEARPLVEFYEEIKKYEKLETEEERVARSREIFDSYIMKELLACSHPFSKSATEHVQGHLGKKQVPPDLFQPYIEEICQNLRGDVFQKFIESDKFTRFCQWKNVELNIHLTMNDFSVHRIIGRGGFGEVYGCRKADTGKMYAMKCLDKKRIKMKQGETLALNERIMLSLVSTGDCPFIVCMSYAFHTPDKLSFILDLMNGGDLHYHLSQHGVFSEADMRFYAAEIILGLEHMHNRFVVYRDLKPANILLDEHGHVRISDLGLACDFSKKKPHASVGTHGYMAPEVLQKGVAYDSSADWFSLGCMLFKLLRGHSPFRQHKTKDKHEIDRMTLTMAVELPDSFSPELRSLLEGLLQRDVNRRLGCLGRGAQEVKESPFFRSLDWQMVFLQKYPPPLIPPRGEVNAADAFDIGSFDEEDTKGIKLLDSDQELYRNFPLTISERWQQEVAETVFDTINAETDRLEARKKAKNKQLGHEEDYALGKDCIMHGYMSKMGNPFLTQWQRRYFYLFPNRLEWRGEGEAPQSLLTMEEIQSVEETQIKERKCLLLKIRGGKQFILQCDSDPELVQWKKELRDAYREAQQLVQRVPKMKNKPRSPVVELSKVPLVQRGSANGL
Briefly: ADPGlo GRK2 Inhibition Assay (Example 8). The conditions noted are these: read-out: A: Enzymatic GRK2: IC50 (nM) (Example 8). It is filed as biochemical. The method, boiled down:
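GRK2 (15 nM 2× enzyme solution) was preincubated 15 min with compound, then reacted 180 min at room temperature with 2× mix of 20 μM ATP plus GRKtide in HEPES pH 7.5, MgCl2, Tween-20, DTT. ADP was detected by ADP-Glo luminescence. Percent inhibition was normalised to enzyme and no-enzyme controls, with dose-response curves from threefold dilutions starting at 100 μM.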
A general note: ADP-Glo turns the ADP formed in a reaction into a luminescent signal.

Setting [3] is: Enzyme Assay A, ADPGlo (Example 8).

For the molecule `Cn1c(CNc2cccc(C(=O)NC(C)(C)c3ccncc3)c2)nnc1-c1ccncn1`, the IC50 in test [1] is above 10000 nM; in test [2] (setting [3]) it was 49 nM.
The matching figures for `CCn1ncc(Cl)c1CNC(=O)c1cccc(NCc2nnc(-c3ccncn3)n2C)c1`: above 10000 nM and 16 nM.
For `Cn1c(CNc2cccc(C(=O)NCc3ncccc3F)c2)nnc1-c1ccncn1` the same measures were 164 nM and 69 nM.
The matching figures for `COCC(NC(=O)c1cccc(NCc2nnc(-c3ccncn3)n2C)c1)c1ccccc1` (stereo not drawn): above 10000 nM and 36 nM.
For `Cn1c(CNc2cccc(C(=O)NCc3cnccc3C(F)(F)F)c2)nnc1-c1ccncn1`, the IC50 in test [1] is above 10000 nM; in test [2] (setting [3]), 39 nM.
For `COc1cccc(F)c1CNC(=O)c1cccc(NCc2nnc(-c3ccncn3)n2C)c1` the same measures were 149 nM and 16 nM.
With `Cn1c(CNc2cccc(C(=O)NCc3c(Cl)cncc3Cl)c2)nnc1-c1ccncn1`, the figures for the IC50 in test [1] and in test [2] (setting [3]) were 4320 nM and 31 nM, respectively.
With `Cn1c(CNc2cccc(C(=O)NCc3ccncc3C(F)(F)F)c2)nnc1-c1ccncn1`, the IC50 in test [1] is above 10000 nM; in test [2] (setting [3]), 33 nM.
For `Cc1cnc(CNC(=O)c2cccc(NCc3nnc(-c4ccncn4)n3C)c2)c(C)c1` the same measures were above 10000 nM and 10 nM.
The matching figures for `COc1cccc(CNC(=O)c2cccc(NCc3nnc(-c4ccncn4)n3C)c2)c1`: above 30000 nM and 22 nM.
In the case of `CC(C)c1ocnc1CNC(=O)c1cccc(NCc2nnc(-c3ccncn3)n2C)c1`, the IC50 was above 10000 nM in test [1] and 350 nM in test [2] (setting [3]).
As for `COc1cccc2c1OCC[C@H]2NC(=O)c1cccc(NCc2nnc(-c3ccncn3)n2C)c1`, the results for the IC50 in test [1] and in test [2] (setting [3]) were 7740 nM and 26.1 nM, respectively.
For `COc1cccc2c1OCC[C@@H]2NC(=O)c1cccc(NCc2nnc(-c3ccncn3)n2C)c1` the same measures were 470 nM and 87.5 nM.
For `COc1ccc2c(c1)OCC[C@H]2NC(=O)c1cccc(NCc2nnc(-c3ccncn3)n2C)c1` the same measures were 485 nM and 60.9 nM.
Consider `COc1ccc2c(c1)[C@H](NC(=O)c1cccc(NCc3nnc(-c4ccncn4)n3C)c1)CCO2`, for which the IC50 in test [1] was above 30000 nM; in test [2] (setting [3]) it was 15.2 nM.
The matching figures for `Cn1c(CNc2cccc(C(=O)N[C@@H]3CCOc4ccc(C(F)(F)F)cc43)c2)nnc1-c1ccncn1`: 594 nM and 8.09 nM.
On to `Cn1c(CNc2cccc(C(=O)N[C@H]3CCOc4ccc(C(F)(F)F)cc43)c2)nnc1-c1ccncn1`, for which the IC50 in test [1] came to 28500 nM; in test [2] (setting [3]) it was 834 nM.
The matching figures for `CNS(=O)(=O)c1cccc(F)c1CNC(=O)c1cccc(NCc2nnc(-c3ccncc3)[nH]2)c1`: 3620 nM and 5.38 nM.
For `O=C(N[C@@H]1COc2cc(F)ccc21)c1cccc(NCc2nnc(-c3ccncc3)[nH]2)c1` the same measures were 607 nM and 7.92 nM.
For `O=C(N[C@H]1COc2cc(F)ccc21)c1cccc(NCc2nnc(-c3ccncc3)[nH]2)c1` the same measures were 4070 nM and 27.9 nM.
Consider `Cn1c(CNc2cccc(C(=O)N[C@@H](CCO)c3ccccc3)c2)nnc1-c1ccncn1`, for which the IC50 came out at 13100 nM in test [1] and 65.9 nM in test [2] (setting [3]).
In the case of `Cn1c(CNc2cccc(C(=O)N[C@H](CCO)c3ccccc3)c2)nnc1-c1ccncn1`, the IC50 worked out at 4190 nM in test [1] and 9.54 nM in test [2] (setting [3]).
As for `Cn1c(CNc2cccc(C(=O)N[C@@H]3COc4cc(F)ccc43)c2)nnc1-c1ccncn1`, the IC50 in test [1] came out at 117 nM; in test [2] (setting [3]), 25.8 nM.
As to `Cn1c(CNc2cccc(C(=O)N[C@H]3COc4cc(F)ccc43)c2)nnc1-c1ccncn1`, the results for the IC50 in test [1] and in test [2] (setting [3]) were above 30000 nM and 9.03 nM, respectively.
As to `CCCn1c(CNc2cccc(C(=O)NCc3c(F)cccc3S(=O)(=O)NC)c2)nnc1-c1ccncn1`, the values for the IC50 in test [1] and in test [2] (setting [3]) were above 3200 nM and 22.2 nM, respectively.
`CCCn1c(CNc2cccc(C(=O)N[C@@H]3COc4cc(F)ccc43)c2)nnc1-c1ccncn1`: the IC50 in test [1] is above 30000 nM; in test [2] (setting [3]), 3.35 nM.
For `CCCn1c(CNc2cccc(C(=O)N[C@H]3COc4cc(F)ccc43)c2)nnc1-c1ccncn1`, the IC50 in test [1] is above 30000 nM; in test [2] (setting [3]), 10.5 nM.
On to `CNS(=O)(=O)c1cccc(F)c1CNC(=O)c1cccc(NCc2nnc3n2CCOc2cnccc2-3)c1`, for which the IC50 in test [1] turned out to be 2840 nM; in test [2] (setting [3]), 85.3 nM.
Turning to `O=C(N[C@@H]1COCc2ccccc21)c1cccc(NCc2nnc(-c3ccncn3)n2CCO)c1`, the results for the IC50 in test [1] and in test [2] (setting [3]) were 592 nM and 1.47 nM, respectively.
For `O=C(N[C@H]1COCc2ccccc21)c1cccc(NCc2nnc(-c3ccncn3)n2CCO)c1`, the IC50 in test [1] was above 2110 nM; in test [2] (setting [3]) it was 38.1 nM.
The matching figures for `O=C(N[C@@H]1COc2cc(F)ccc21)c1cccc(NCc2nnc(-c3ccncn3)n2CCO)c1`: 25.4 nM and 22.4 nM.
For `O=C(N[C@H]1COc2cc(F)ccc21)c1cccc(NCc2nnc(-c3ccncn3)n2CCO)c1` the same measures were 256 nM and 3.84 nM.
Regarding `O=C(N[C@@H]1COCc2ccccc21)c1cccc(NCc2nnc(-c3ccncc3)n2CCO)c1`, the IC50 in test [1] was above 30000 nM; in test [2] (setting [3]), 9.28 nM.
The matching figures for `O=C(N[C@H]1COCc2ccccc21)c1cccc(NCc2nnc(-c3ccncc3)n2CCO)c1`: 41.6 nM and 10.9 nM.
For `O=C(N[C@@H]1COCc2c(Cl)cccc21)c1cccc(NCc2nnc(-c3ccncc3)n2CCO)c1` the same measures were 24.2 nM and 9.91 nM.
The matching figures for `O=C(N[C@H]1COCc2c(Cl)cccc21)c1cccc(NCc2nnc(-c3ccncc3)n2CCO)c1`: above 30000 nM and 7.18 nM.
As to `O=C(N[C@@H]1COc2cc(F)ccc21)c1cccc(NCc2nnc(-c3ccncc3)n2CCO)c1`, the IC50 in test [1] was 3130 nM; in test [2] (setting [3]), 4.8 nM.
For `O=C(N[C@H]1COc2cc(F)ccc21)c1cccc(NCc2nnc(-c3ccncc3)n2CCO)c1` the same measures were above 30000 nM and 23.2 nM.
The matching figures for `Cn1c(CNc2cccc(C(=O)N[C@@H]3COCc4ccccc43)c2)nnc1-c1ccncc1F`: above 30000 nM and 227 nM.
For `Cn1c(CNc2cccc(C(=O)N[C@H]3COCc4ccccc43)c2)nnc1-c1ccncc1F` the same measures were 61.5 nM and 32.5 nM.
As for `Cn1c(CNc2cccc(C(=O)N[C@@H]3COCc4c(Cl)cccc43)c2)nnc1-c1ccncc1F`, the IC50 in test [1] is above 30000 nM; in test [2] (setting [3]) it was 60.4 nM.
The matching figures for `Cn1c(CNc2cccc(C(=O)N[C@H]3COCc4c(Cl)cccc43)c2)nnc1-c1ccncc1F`: 245 nM and 21.9 nM.
As for `CNS(=O)(=O)c1cccc(F)c1CNC(=O)c1cccc(NCc2nnc(-c3ccncc3F)n2C)c1`, the IC50 in test [1] came out at 2700 nM; in test [2] (setting [3]), 33.9 nM.
The matching figures for `Cn1c(CNc2cccc(C(=O)N[C@@H]3COc4cc(F)ccc43)c2)nnc1-c1ccncc1F`: 201 nM and 22.7 nM.
For `Cn1c(CNc2cccc(C(=O)N[C@H]3COc4cc(F)ccc43)c2)nnc1-c1ccncc1F` the same measures were above 30000 nM and 111 nM.
The matching figures for `CNS(=O)(=O)c1cccc(F)c1CNC(=O)c1cccc(NCc2nnc(-c3ccncc3)n2C)c1`: 1240 nM and 15.2 nM.
On to `Cn1c(CNc2cccc(C(=O)N[C@H]3CCOc4c(Cl)cccc43)c2)nnc1-c1ccncc1`, for which the IC50 in test [1] was above 30000 nM; in test [2] (setting [3]) it was 32.1 nM.
With `Cn1c(CNc2cccc(C(=O)N[C@@H]3CCOc4c(Cl)cccc43)c2)nnc1-c1ccncc1`, the results for the IC50 in test [1] and in test [2] (setting [3]) were above 865 nM and 27.5 nM, respectively.
Consider `Cn1c(CNc2cccc(C(=O)N[C@H]3COc4cc(F)ccc43)c2)nnc1-c1ccncc1`, for which the IC50 was above 7490 nM in test [1] and 6.81 nM in test [2] (setting [3]).
For the molecule `Cn1c(CNc2cccc(C(=O)NCc3ccccc3C(F)(F)F)c2)nnc1-c1ccncc1F`, the IC50 in test [1] is above 2320 nM; in test [2] (ADPGlo GRK2 enzyme assay), 39.1 nM.
`[2H]C([2H])(Nc1cccc(C(=O)N[C@H]2CCOc3ccccc32)c1)c1nnc(-c2ccncn2)n1CCO`: the figures for the IC50 in test [1] and in test [2] (ADPGlo GRK2 enzyme assay) were 94 nM and 3.23 nM, respectively.
